The values below are quoted from earlier work in patent publication US20050065183A1 (priority 2003, published 2005).

The series deals with muscarinic.

For the compound `CC(C)(C(=O)O)c1ccc(C(O)CCCN2CCC(C(O)(c3ccccc3)c3ccccc3)CC2)cc1` (stereo not drawn) [Fexofenadine, 4-[4-[4-(hydroxydiphenylmethyl)-1-piperidinyl]-1-hydroxybutyl]-α,α-dimethylbenzeneacetic acid], the antimuscarinic activity result is recorded as “weak”.
